US20090270452A1, “USE OF SOLUBLE EPOXIDE HYDROLASE INHIBITORS IN THE TREATMENT OF SMOOTH MUSCLE DISORDERS” (Arete Therapeutics, Inc., priority 2008, published 2009)

Key:
[1] = test system: rat corpus cavernosual strips; conditions: cited from earlier work; for phenylephrine (PE) induced contraction of the cavernosual strips: preincubation with the inhibitor
[2] = test system: rabbit corpus cavernosum smooth muscle strips; experiment: Relaxation of isolated rabbit corpus cavernosum smooth muscle strips (pressure transducer); assay type: cell-based; conditions: 10 minutes
Description: A study was performed using freshly isolated rabbit corpus cavernosum smooth muscle strips attached to a pressure transducer in a temperature controlled bath, to evaluate the efficacy of 1-adamantyl-3-(1-(methylsulfonyl)piperidin-4-yl)urea (Compound 1) for the treatment of erectile dysfunction.
The isolated rabbit corpus cavernosum strips were exposed to Compound 1 and/or 14,15-epoxyeicosatrienoic acid (14,15-EET) at 1 μM or 10 μM concentrations for 10 minutes. The relaxation of each strip was measured by pressure transduction. The percent relaxation was determined relative to a control strip incubated with sodium nitroprusside (SNP) of the formula Na2[Fe(CN)5NO].2H2O, SNP is a compound that serves as a source of nitric oxide, a potent peripheral vasodilator. All experimental conditions were done in duplicate.

[3] = test system: rat mesenteric arteries; experiment: Vasorelaxation of rat mesenteric arteries pre-contracted with U46619 or high KCl (myograph); assay type: cell-based
Description: Additional experiments were performed wherein the pre-contraction of the mesenteric arteries was induced by pre-incubation with either 0.1-1.0 μM U46619 (9,11-dideoxy-9α,11α-methanoepoxy Prostaglandin F2α, […]). The pre-contracted arteries were exposed to 2 μM, 10 μM, 50 μM, 100 μM, 500 μM or 1000 μM of Compound 2 and the level of relaxation was measured by myograph. […] The amount of relaxation induced by Compound 2 was consistent between the vessels pre-contracted by U46619 and high KCl.

[4] = test system: rat arteries; experiment: Ach-induced relaxation of isolated arteries from angiotensin II infused rats after in vitro pre-incubation (myograph); assay type: cell-based; conditions: arteries of ANG II infused rats, pre-incubation with 100 μM compound for 90 minutes; 2% without compound
Description: The efficacy of 1-(1-nicotinoylpiperidin-4-yl)-3-(4-(trifluoromethoxy)phenyl)urea (Compound 2) and 1-adamantyl-3-(1-acetylpiperidin-4-yl)urea (Compound 3) to effect vasorelaxation of rat arteries in vitro and in vivo was examined. Rats were infused with angiotensin II (ANG II) for 4 weeks resulting in a reduced vasorelaxation response to acetylcholine (Ach), a neurotransmitter known to cause endothelium-dependent vasodilation of arteries. Ach-induced relaxation was measured by myograph.

[5] = test system: rat mesenteric arteries; experiment: Direct vasorelaxation of rat mesenteric arteries with intact or denuded endothelium (wired myograph); assay type: cell-based
Description: The efficacy of the 1-(1-nicotinoylpiperidin-4-yl)-3-(4-(trifluoromethoxy)phenyl)urea (Compound 2) to directly effect vasorelaxation of rat mesenteric arteries was examined. Rat mesenteric arteries with intact and denuded endothelium were isolated under microscope. Both intact and denuded arteries were exposed to various concentrations of Compound 2 (2 μM, 10 μM, 50 μM, 100 μM, 500 μM or 1000 μM) and the amount of relaxation was measured by a wired myograph.

[6] = test system: rat arteries; experiment: Ach-induced relaxation of arteries from angiotensin II rats co-treated in vivo (myograph); conditions: ANG II rats
Description: Additionally, in vivo attenuation of the effects of ANG II by Compound 2 or Compound 3 was examined. Rats were administered ANG II for 2 weeks and co-administered ANG II and either 10 mg of Compound 2 once a day by oral gavage or 30 mg of Compound 3 per day dose in drinking water for 2 weeks. Ach induced relaxation was measured by myograph.

[7] = test system: arteries from SHR; experiment: Aortic relaxation of isolated arteries from spontaneously hypertensive rats (SHR) to Ach or SNP after pre-incubation (myograph); assay type: cell-based, rat; conditions: pre-incubation with 100 μM compound for 90 minutes

CCCCCCCCCCCCNC(=O)NC1CCCCC1 [1-cyclodexy-3-dodecyl-urea]
phenylephrine (PE) induced contraction of the cavernosual strips [1]: attenuated

CCCCCC1OC1CC=CCC=CCC=CCCCC(=O)O (stereo not shown) [14,15-EET, 14,15-epoxyeicosatrienoic acid, reference compound]
relaxation of corpus cavernosum strip ([2]; 14,15-EET alone, 1 μM): no effect
relaxation of corpus cavernosum strip ([2]; 14,15-EET alone, 10 μM, in one of the two experiments): 7%
EET-induced vasorelaxation in vessels precontracted with high KCl ([3]; pre-contracted with high KCl (100 mM per FIG. 3A)): completely blocked

CS(=O)(=O)N1CCC(NC(=O)NC23CC4CC(CC(C4)C2)C3)CC1 [Compound 1, 1-adamantyl-3-(1-(methylsulfonyl)piperidin-4-yl)urea]
percent relaxation of corpus cavernosum strip ([2]; 1 μM of both Compound 1 and 14,15-EET, relative to SNP control strip): 15%
percent relaxation of corpus cavernosum strip ([2]; 10 μM of both Compound 1 and 14,15-EET, relative to SNP control strip): 22%
relaxation of corpus cavernosum strip ([2]; Compound 1 alone, 1 μM or 10 μM, relative to SNP control strip): did not induce relaxation

O=C(Nc1ccc(OC(F)(F)F)cc1)NC1CCN(C(=O)c2cccnc2)CC1 [Compound 2, 1-(1-nicotinoylpiperidin-4-yl)-3-(4-(trifluoromethoxy)phenyl)urea]
percent relaxation with 100 nM Ach [4]: 30%
relaxation of pre-contracted mesenteric arteries ([3]; 2-1000 μM, pre-contracted by 0.1-1.0 μM U46619 or 127 mM KCl, consistent between both): dose dependent effect
percent relaxation of mesenteric arteries ([5]; 10 μM of compound): 5%
percent relaxation of mesenteric arteries ([5]; 100 μM of compound): 60%
response to Ach-induced relaxation after in vivo co-administration ([6]; 10 mg once a day by oral gavage for 2 weeks): significantly improved dose dependent response to Ach

CC(=O)N1CCC(NC(=O)NC23CC4CC(CC(C4)C2)C3)CC1 [Compound 3, 1-adamantyl-3-(1-acetylpiperidin-4-yl)urea]
percent relaxation with 100 nM Ach [4]: 70%
percent relaxation induced by 10 μM Ach ([7]; vehicle 65%): 90%
percent relaxation induced by 100 nM SNP ([7]; vehicle 70%): 95%
response to Ach-induced relaxation after in vivo co-administration ([6]; 30 mg per day dose in drinking water for 2 weeks): significantly improved dose dependent response to Ach

CCCCc1ccc(N=CN)c(C)c1 [N′-(4-dutyl-2-methyl-phenyl)-foramidine]
phenylephrine (PE) induced contraction of the cavernosual strips [1]: attenuated

epoxyeicosatrienoic acids [EETs]
EC50 ([1]; normal, old and diabetic rat corpus cavernosual strips, read-out: apparent EC50 of relaxation): 10 nM
Emax of relaxation ([1]; normal, old and diabetic rat strips, depending on the system): 30-70%
